Measurements from patent US20230381142A1, “ANTILEISHMANIAL COMPOUNDS, COMPOSITIONS AND USE THEREOF” (TRUSTEES OF BOSTON UNIVERSITY, priority 2022, published 2023).
≈ marks a conversion by molar mass, not a printed value.

How the values were obtained:
[1] = system: L. donovani intracellular amastigotes infecting THP-1 macrophages; assay: GSK intramacrophage L. donovani assay (LD AMMAC, inMac; Assay Conditions C); type: cell-based; conditions: Leishmania donovani; growth inhibition of L. donovani intracellular amastigotes infecting THP-1 macrophages; read-out: LD AMMAC EC50
Summary of the method: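 EC50 values come from counting amastigotes per infected THP-1 macrophage (AMMAC). Parallel read-outs give percentage of infected cells per well (INFCELL) and a macrophage-number toxicity EC50 (MAC).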

host THP-1 macrophages = assay: GSK inMac assay, host cell toxicity readout (LD MAC); type: cell-based, human; conditions: Homo sapiens, THP-1, cytotoxicity against host THP-1 macrophages
Summary of the method: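 MAC EC50 reflects THP-1 host cell counts, measured within GSK's inMac L. donovani infection assay that also scores intracellular amastigotes and infected-cell percentage.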

HepG2 cells = assay: HepG2 cytotoxicity; type: cell-based; conditions: Homo sapiens; toxicity against HepG2 cells
Experimental: Given the literature precedents described above and the apparent narrow tolerance for R^3 substitutions observed in the primary screen compounds, a thorough and methodical assessment was undertaken of tolerated groups at the three points of diversity (R^1/R^2/R^3) for the core. At this stage of the project, all analogues were assessed using a battery of assays performed in-house at GlaxoSmithKline. For antileishmanial activity, GSK's inMac assay was utilized. This assay provides two readouts of compound potency: average number of intracellular amastigotes per infected cell (AMMAC) EC50, percentage of infected cells per well (INFCELL) EC50, as well as a toxicity output derived from the number of host cells (MAC EC50). In addition, compounds were assessed for toxicity against HepG2 cells (HEPG2 EC50). Here, AMMAC EC50 values were focused on for relative potency assessments. […] It should be noted that for all compounds assessed in this project, the measured toxicity against THP-1 macrophages either equaled or exceeded that of HepG2 hepatocytes, therefore the MAC SI is used here as the more conservative estimate of therapeutic index.

[2] = Kinetic aqueous solubility by CLND; type: physicochemical; conditions: kinetic from dmso stock, high-throughput CLND
Experimental: Solubility of compounds using ChemiLuminescent Nitrogen Detection (CLND) was measured as described. Solubility of compounds using Charged Aerosol Detection (CAD) was measured as described. Solubility of solid compounds in Fasted Simulated Intestinal Fluid (FaSSIF) was measured as described.

[3] = Artificial membrane permeability (AMP); type: in vitro ADME; conditions: PAMPA, pH 7.4
Experimental: Passive permeability of compounds via rate of permeation through an artificial phospholipid membrane at pH 7.4 was measured in a high-throughput format, in duplicate. A solution of 1.8% phosphatidylcholine in 1% decane was added to a 96-well Millicell filter plate along with 250 μL of 50 mM phosphate buffer, pH 7.4 on the donor side, and 100 μL of the same buffer solution on the receiver side. The assay plate was shaken for 45 minutes before adding test compounds. Test compounds were then added to the filter plate and then incubated at room temperature with shaking for three hours. The donor and receiver solutions were next transferred to a 384-well plate for analysis by LC/MS.

human serum albumin = human serum albumin (Homo sapiens, UniProt P02768); assay: Human serum albumin (HSA) binding, chromatographic; type: in vitro ADME
Experimental: The percentage of compound bound to human serum albumin was measured using a chromatographic method as described. Briefly, each compound was assayed on an immobilized HSA column and gradient retention times measured, with chromatographic peak detection by UV. Each retention time was then converted to a % HSA bound value using a calibration set of compounds with a known % HSA binding.

[4] = Property forecast index (PFI = ChromLogD7.4 + aromatic rings); type: physicochemical
Experimental: At the outset of the project, compound 1 was evaluated against GSK's established criteria for antileishmanial compound advancement (Table 2). Some of these assessments were performed on racemic 1, while chiral separation was also pursued of the 1 racemate to determine the active enantiomer. […] Based on this promising profile, it progressed into medicinal chemistry optimization to better understand structure-activity relationships (SAR) toward improved potency, as well as structure-property relationships (SPR) with an eye toward reducing PFI and plasma protein binding.

[5] = aqueous medium (not further specified)
[6] = aqueous (not further specified)

Chain of human serum albumin (P02768 25-609): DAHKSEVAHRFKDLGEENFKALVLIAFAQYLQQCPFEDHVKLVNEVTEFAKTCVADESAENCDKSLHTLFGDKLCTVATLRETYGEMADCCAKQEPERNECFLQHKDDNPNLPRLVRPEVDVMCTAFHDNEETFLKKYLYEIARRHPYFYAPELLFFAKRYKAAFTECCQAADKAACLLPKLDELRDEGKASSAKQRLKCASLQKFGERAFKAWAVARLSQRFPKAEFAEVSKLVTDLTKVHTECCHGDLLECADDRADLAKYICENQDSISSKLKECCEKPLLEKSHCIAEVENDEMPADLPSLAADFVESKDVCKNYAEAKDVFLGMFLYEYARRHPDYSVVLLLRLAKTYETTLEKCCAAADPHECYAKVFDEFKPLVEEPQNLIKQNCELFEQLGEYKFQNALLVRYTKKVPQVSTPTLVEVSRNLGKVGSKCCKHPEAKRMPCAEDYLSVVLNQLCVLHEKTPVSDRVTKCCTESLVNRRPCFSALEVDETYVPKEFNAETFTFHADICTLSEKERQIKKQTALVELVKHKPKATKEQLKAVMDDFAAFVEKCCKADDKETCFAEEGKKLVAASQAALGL

EC50 [1]	solubility [2, 5]	Papp at 3 h [3]	HSA Binding (human serum albumin)	PFI [4]	solubility [2]	solubility [2, 6]	SMILES	EC50 (host THP-1 macrophages)	EC50 (HepG2 cells)
20 µM	143 µM (≈ 52.7 µg/mL)	42 ×10⁻⁶ cm/s	89.5%	7.2	–	–	COc1ccc(N2C(=O)c3[nH]nc(CC(C)C)c3C2c2nccs2)cc1 (stereo not drawn) [Compound S5]	> 50 µM	> 100 µM
> 50 µM	≥ 432 µM	23 ×10⁻⁶ cm/s	87.9%	6.3	–	–	COc1ccc(N2C(=O)c3[nH]nc(CC(C)C)c3C2c2ccncc2)cc1 (stereo not drawn) [Compound S6]	> 50 µM	> 100 µM
> 50 µM	367 µM (≈ 146 µg/mL)	54 ×10⁻⁶ cm/s	93%	7.4	–	–	COc1ccc(N2C(=O)c3[nH]nc(CC(C)C)c3C2c2cc(F)nc(F)c2)cc1 (stereo not drawn) [Compound S14]	> 50 µM	> 100 µM
12.6 µM	305 µM (≈ 120 µg/mL)	38 ×10⁻⁶ cm/s	94.4%	8.3	–	–	COc1ccc(N2C(=O)c3[nH]nc(CC(C)C)c3C2c2ccc(F)c(C)n2)cc1 (stereo not drawn) [Compound S13]	> 50 µM	> 100 µM
15.8 µM	188 µM (≈ 86.2 µg/mL)	29 ×10⁻⁶ cm/s	94.8%	9.0	–	–	COc1ccc(N2C(=O)c3[nH]nc(CC(C)C)c3C2C2CCN(Cc3ccccc3)CC2)cc1 (stereo not drawn) [Compound S1]	20 µM	63.1 µM
10 µM	386 µM (≈ 151 µg/mL)	47 ×10⁻⁶ cm/s	91.2%	6.6	–	–	COc1ccc(N2C(=O)c3[nH]nc(CC(C)C)c3C2c2cncc(OC)c2)cc1 (stereo not drawn) [Compound S11]	20 µM	> 100 µM

Further lines, the compound ahead of its results:

SMILES	EC50 [1]	solubility [2, 5]	Papp at 3 h [3]	HSA Binding (human serum albumin)	PFI [4]	solubility [2]	solubility [2, 6]	EC50 (host THP-1 macrophages)	EC50 (HepG2 cells)
COc1ccc(N2C(=O)c3[nH]nc(CC(C)C)c3C2c2ccccc2OC)cc1 (stereo not drawn) [Compound 57, 3-isobutyl-4-(2-methoxyphenyl)-5-(4-methoxyphenyl)-4,5-dihydropyrrolo[3,4-c]pyrazol-6(1H)-one]	0.5 µM	57 µM (≈ 22.3 µg/mL)	35 ×10⁻⁶ cm/s	95.7%	8.6	–	–	25.1 µM	6.3 µM
COc1ccc(N2C(=O)c3[nH]nc(CC(C)C)c3C2c2cccc(Cl)c2)cc1 (stereo not drawn) [Compound 59]	7.9 µM	19 µM (≈ 7.52 µg/mL)	28 ×10⁻⁶ cm/s	96.8%	9.0	–	–	39.8 µM	39.8 µM
C=C(C)CCc1n[nH]c2c1C(c1ccc(F)cc1)N(c1ccc(OC)cc1)C2=O (stereo not drawn) [Compound 13]	0.5 µM	–	37 ×10⁻⁶ cm/s	96.8%	8.5	52 µM (≈ 20.4 µg/mL)	–	1.6 µM	50.1 µM
COc1ccc(N2C(=O)c3[nH]nc(CC(C)C)c3C2c2ccc(F)cc2F)cc1 (stereo not drawn) [Compound 63]	2 µM	52 µM (≈ 20.7 µg/mL)	14 ×10⁻⁶ cm/s	96.1%	8.8	–	–	25.1 µM	63.1 µM
COc1ccc(N2C(=O)c3[nH]nc(CC(C)C)c3C2c2ccc(F)cc2C)cc1 (stereo not drawn) [Compound 64, 4-(4-fluoro-2-methylphenyl)-3-isobutyl-5-(4-methoxyphenyl)-4,5-dihydropyrrolo[3,4-c]pyrazol-6(1H)-one]	0.5 µM	43 µM (≈ 16.9 µg/mL)	11 ×10⁻⁶ cm/s	97.2%	8.8	–	–	25.1 µM	50.1 µM
CC(C)Cc1n[nH]c2c1C(c1ccc(F)cc1)N(c1ccc(C(=O)O)cc1)C2=O (stereo not drawn) [Compound 27]	> 50 µM	–	< 0.3 ×10⁻⁶ cm/s	95.2%	4.9	–	≥ 389 µM	> 50 µM	> 100 µM
Cc1ccc(CN2C(=O)c3[nH]nc(CC(C)C)c3C2c2ccc(F)cc2)o1 (stereo not drawn) [Compound 35]	15.8 µM	19 µM (≈ 6.98 µg/mL)	37 ×10⁻⁶ cm/s	97.2%	8.9	–	–	39.8 µM	50.1 µM
COc1cccc(N2C(=O)c3[nH]nc(CC(C)C)c3C2c2ccc(F)cc2)c1 (stereo not drawn) [Compound 30]	12.6 µM	64 µM (≈ 24.3 µg/mL)	37 ×10⁻⁶ cm/s	97.3%	8.4	–	–	31.6 µM	63.1 µM
CC(C)Cc1n[nH]c2c1C(c1ccc(F)cc1)N(c1cccnc1)C2=O (stereo not drawn) [Compound 32]	25.1 µM	182 µM (≈ 63.8 µg/mL)	47 ×10⁻⁶ cm/s	93.4%	7.2	–	–	> 50 µM	> 100 µM
CC(C)Cc1n[nH]c2c1C(c1ccc(F)cc1)N(c1ccc(F)cc1)C2=O (stereo not drawn) [Compound 23]	6.3 µM	–	12 ×10⁻⁶ cm/s	97.7%	8.8	–	61 µM (≈ 22.4 µg/mL)	25.1 µM	50.1 µM
COc1ccc(N2C(=O)c3[nH]nc(CC(C)C)c3C2c2ccccc2Br)cc1 (stereo not drawn) [Compound 56]	0.5 µM	12 µM (≈ 5.28 µg/mL)	30 ×10⁻⁶ cm/s	97.1%	9.2	–	–	25.1 µM	39.8 µM
COc1ccc(N2C(=O)c3[nH]nc(CCC(C)C)c3C2c2ccc(F)cc2)cc1 (stereo not drawn) [Compound 9]	2.5 µM	–	10 ×10⁻⁶ cm/s	98.0%	9.1	15 µM (≈ 5.9 µg/mL)	–	31.6 µM	79.4 µM
COc1ccc(N2C(=O)c3[nH]nc(CC(C)C)c3C2c2ccccc2F)cc1 (stereo not drawn) [Compound 54]	3.2 µM	75 µM (≈ 28.5 µg/mL)	23 ×10⁻⁶ cm/s	97.3%	8.6	–	–	31.6 µM	31.6 µM
COc1ccc(N2C(=O)c3[nH]nc(CC(C)C)c3C2c2ccc(C(=O)O)cc2)cc1 (stereo not drawn) [Compound 50]	> 50 µM	≥ 470 µM	< 0.3 ×10⁻⁶ cm/s	90.7%	4.5	–	–	> 50 µM	> 100 µM
COC(=O)c1ccc(C2c3c(CC(C)C)n[nH]c3C(=O)N2c2ccc(OC)cc2)cc1 (stereo not drawn) [Compound 51]	25.1 µM	44 µM (≈ 18.5 µg/mL)	38 ×10⁻⁶ cm/s	95%	8.2	–	–	39.8 µM	63.1 µM
CC(C)Cc1n[nH]c2c1C(c1ccc(F)cc1)N(C1CCOCC1)C2=O (stereo not drawn) [Compound 38]	31.6 µM	≥ 381 µM	49 ×10⁻⁶ cm/s	90.2%	6.5	–	–	> 50 µM	> 100 µM
COC(=O)c1ccc(N2C(=O)c3[nH]nc(CC(C)C)c3C2c2ccc(F)cc2)cc1 (stereo not drawn) [Compound 26]	1.6 µM	–	41 ×10⁻⁶ cm/s	97.5%	8.5	–	26 µM (≈ 10.6 µg/mL)	31.6 µM	39.8 µM
COc1ccc(N2C(=O)c3[nH]nc(CC(C)C)c3C2c2ccc(F)c(F)c2)cc1 (stereo not drawn) [Compound 65, 4-(3,4-difluorophenyl)-3-isobutyl-5-(4-methoxyphenyl)-4,5-dihydropyrrolo[3,4-c]pyrazol-6(1H)-one]	5 µM	44 µM (≈ 17.5 µg/mL)	14 ×10⁻⁶ cm/s	96.2%	8.7	–	–	25.1 µM	50.1 µM
